Patent US11591326B2, “Inhibitors of protein arginine methyltransferase 5 (PRMT5), pharmaceutical products thereof, and methods thereof” (PHARMABLOCK SCIENCES (NANJING), INC., priority 2018, dated 2023)
Like-named read-outs stand apart in the source and are kept apart here.

Key:
[1] = tested on: BT474; assay: Breast cancer panel proliferation inhibition, BT474; format: cell-based; conditions: Homo sapiens
Description: (§1) Inhibitory ability of compounds synthesized on the proliferation of three panels of cancer cell lines, including 5 breast cancer, 6 liver cancer, and 3 lung cancer cell lines were evaluated. Exponentially growing cells were seeded in the media of choice at various cell densities in 384-well plates with 20 ul per well and incubated overnight at 37° C., 5% CO2 incubator. Compounds were prepared as 10-point, 3-fold serial dilutions in DMSO, beginning at 6 mM. 1 μl of DMSO solutions from the compound stock plates were added to 99 ul of cell media (final top concentration of compound in the assay was 30 uM and the final concentration of DMSO was 0.5%). 20 μL of compound solutions in media were added to each well of plates with cells seeded. After adding compound solutions, assay plates were incubated for 8 and 12 days, respectively, at 37° C., 5% CO2. During this incubation period, cell media was changed every 4 days. After removing old media from cell plates, 40 ul of media with testing compounds dissolved, which were prepared by adding 1 ul of compound DMSO serial solutions to 199 ul of cell media, were added to the assay plates with the same layout as they were initially prepared. After 8 or 12 days, cell viability was measured using the CellTiter-Glo assay kit from Promega (Madison, Wis., USA) by quantitating the ATP present in the cell cultures. 20 μL of CellTiter-Glo reagent was added to each well of the cell plates. Luminescence was read after 10 minute of incubation with the Envision multiple plate reader from PerkinElmer (Waltham, Mass., USA). The concentrations of compounds inhibiting cell viability by 50% (IC50 values) were determined using a sigmoidal dose-response model (variable slopes, four parameters) in Prism 7 (La Jolla, Calif., USA).

[2] = tested on: MDA-MB-231; assay: Breast cancer panel proliferation inhibition, MDA-MB-231; format: cell-based; conditions: Homo sapiens
Description: as §1

[3] = tested on: Hep G2; assay: Liver cancer panel proliferation inhibition, Hep G2; format: cell-based; conditions: Homo sapiens
Description: as §1

[4] = tested on: Huh1; assay: Liver cancer panel proliferation inhibition, Huh1; format: cell-based; conditions: Homo sapiens
Description: as §1

[5] = tested on: SNU398; assay: Liver cancer panel proliferation inhibition, SNU398; format: cell-based; conditions: Homo sapiens
Description: as §1

[6] = Pharmacokinetic study in rat; format: in vivo, Male SD rats; conditions: male, SD; for plasma clearance / Vd: 2 mg/kg, Rat PK (IV) 2 mpk; for plasma clearance: read-out: Clint (converted); for Vd / AUC(0-t) / Cmax / Tmax / bioavailability / half-life: plasma; for Vd: read-out: Vss; for AUC(0-t) / Cmax / Tmax / bioavailability / half-life: 10 mg/kg, Rat PK (PO) 10 mpk; for half-life: read-out: T½ (converted)
Description: Male SD rats (185-265 g; purchased from Shanghai SLAC laboratory animal CO. LTD; n=18, with 3 per compound) were treated with a single dose of compounds being tested at 2 mg/kg by intravenous tail-vein injection and 10 mg/kg by oral gavage administration, with both doses formulated in 5% DMSO+45% PEG400 in water. Animals upon PO administration were fasted overnight and fed 4 hours after dosing. Animals upon IV administration were free access to food and water. The study was performed in accordance with the guidelines and standards of the Association for Assessment and Accreditation of Laboratory Animal Care (AAALAC International) and the National Institutes of Health.
The animal is restrained manually. Approximately 150 μL whole blood/time point is collected in K2EDTA tube via tail vein. Blood sample will be put on ice and centrifuged at 2000 g for 5 min to obtain plasma sample within 15 minutes. Plasma samples were stored at approximately −70° C. until analysis. An aliquot of 20 μL sample was added with 200 μL IS (Diclofenac, 100 ng/mL) in ACN. The mixture was vortexed for 10 min and centrifuged at 5800 rpm for 10 min. An aliquot of 1 μL supernatant was injected for LC-MS/MS analysis. For 10×-diluted sample, an aliquot of 2 μL sample was added with 18 μL blank plasma. The sample preparation procedure is same with no-diluted sample. Standard calibration curves were constructed by analyzing a series of control plasma aliquots containing Diclofenac (100 ng/mL) as an internal standard and 1.0-3,000 ng/mL testing compounds. Compound concentrations were determined with UPLC-MS/MS-22 (Triple Quad™ 6500).

[7] = BT-474, 192 h, BT474, 8 days, read-out: IC50 (μM) 8 days
[8] = BT-474, 288 h, BT474, 12 days, read-out: IC50 (μM) 12 days
[9] = 192 h, MDA-MB-231, 8 days, read-out: IC50 (μM) 8 days
[10] = 288 h, MDA-MB-231, 12 days, read-out: IC50 (μM) 12 days
[11] = HepG2, 192 h, Hep G2, 8 days, read-out: IC50 (μM) 8 days
[12] = HepG2, 288 h, Hep G2, 12 days, read-out: IC50 (μM) 12 days
[13] = HuH-1, 192 h, Huh1, 8 days, read-out: IC50 (μM) 8 days
[14] = HuH-1, 288 h, Huh1, 12 days, read-out: IC50 (μM) 12 days
[15] = SNU-398, 192 h, SNU398, 8 days, read-out: IC50 (μM) 8 days
[16] = SNU-398, 288 h, SNU398, 12 days, read-out: IC50 (μM) 12 days

IC50 [1, 7] [µM] | IC50 [1, 8] [µM] | IC50 [2, 9] [µM] | IC50 [2, 10] [µM] | IC50 [3, 11] [µM] | IC50 [3, 12] [µM] | IC50 [4, 13] [µM] | IC50 [4, 14] [µM] | IC50 [5, 15] [µM] | IC50 [5, 16] [µM] | plasma clearance [6] [mL/min/kg] | Vd [6] [L/kg] | AUC(0-t) [6] [ng·h/mL] | Cmax [6] [ng/mL] | Tmax [6] [h] | bioavailability [6] [%] | half-life [6] [h] | Structure (SMILES)
0.11 | 0.057 | 0.49 | 0.075 | 2.87 | 0.77 | 0.44 | 0.041 | 0.54 | 0.25 | 31.7 | 7.15 ± 2.86 | 3280 ± 805 | 798 ± 247 | 1.17 ± 0.764 | 62 ± 15.1 | 3.13 ± 0.415 | CC(=O)N1CCC(Nc2ccc3c(c2)C(=O)N(C[C@H](O)CN2CCc4ccccc4C2)CC3)CC1 [Compound 24a, (R)-7-((1-acetylpiperidin-4-yl)amino)-2-(3-(3,4-dihydroisoquinolin-2(1H)-yl)-2-hydroxypropyl)-3,4-dihydroisoquinolin-1(2H)-one]
0.041 | 0.03 | 0.17 | 0.064 | 3.09 | 0.97 | 0.54 | 0.075 | 0.45 | 0.12 | 35.3 | 5.02 ± 0.389 | 2260 ± 764 | 563 ± 233 | 1.33 ± 0.577 | 48.1 ± 16.1 | 3.02 ± 0.413 | CC(=O)N1CCC(Nc2ccc3c(c2)C(=O)N(C[C@H](O)CN2CCc4ccccc4C2)CCO3)CC1 [Compound 52a, (R)-7-((1-acetylpiperidin-4-yl)amino)-4-(3-(3,4-dihydroisoquinolin-2(1H)-yl)-2-hydroxypropyl)-3,4-dihydrobenzo[f][1,4]oxazepin-5(2H)-one]
0.14 | 0.056 | 0.7 | 0.096 | > 10 | 3.26 | 1.92 | 0.085 | 0.83 | 0.41 | 35.5 | 2.17 ± 0.0643 | 1400 ± 601 | 364 ± 82.5 | 1.67 ± 0.577 | 30.5 ± 13 | 1.5 ± 0.123 | CC(=O)N1CCC(Nc2cc(C(=O)NC[C@H](O)CN3CCc4ccccc4C3)ncn2)CC1 [Compound C3, reference compound]
